Converted amounts (≈) assume the structure as drawn.
Test system: M. tb.pFICTO-dapB
Assay: microbe, parasite or virus in culture
Assay type: cell-based, Mycobacterium tuberculosis

Compound: COC(=O)CCCc1nc2ccccc2nc1N=Nc1ccccc1 [Compound B59, 4-(3-Phenylazoquinoxalin-2-yl) butanoic acid methyl ester]
- MIC99 in overexpressing strain relative to wild type (M. tb.pFICTO-dapB vs M. tb H37Rv): 2 x MIC99
- MIC99 (Mycobacterium tuberculosis, 168 h, M. tb.pFICTO-dapB, 7 days, read-out: MIC99 against DapB-overexpressing strain): 40 µg/mL (≈ 120 µM)

Source: publication PMC10714930, “In silico virtual screening for the identification of novel inhibitors against dihydrodipicolinate reductase (DapB) of Mycobacterium tuberculosis, a key enzyme of diaminopimelate pathway” (Microbiology Spectrum, 2023)
